Here are results for seven compounds from ChEMBL document CHEMBL5291721, “A preclinical secondary pharmacology resource illuminates target-adverse drug reaction associations of marketed drugs” (Nat Commun, 2023).

Molecules are shown by their SMILES. Bounds are passed on as bounds.

For assay [1], the target named is T1, Alpha-2A adrenergic receptor (Homo sapiens, UniProt P08913).
T1 sequence (P08913 whole entry): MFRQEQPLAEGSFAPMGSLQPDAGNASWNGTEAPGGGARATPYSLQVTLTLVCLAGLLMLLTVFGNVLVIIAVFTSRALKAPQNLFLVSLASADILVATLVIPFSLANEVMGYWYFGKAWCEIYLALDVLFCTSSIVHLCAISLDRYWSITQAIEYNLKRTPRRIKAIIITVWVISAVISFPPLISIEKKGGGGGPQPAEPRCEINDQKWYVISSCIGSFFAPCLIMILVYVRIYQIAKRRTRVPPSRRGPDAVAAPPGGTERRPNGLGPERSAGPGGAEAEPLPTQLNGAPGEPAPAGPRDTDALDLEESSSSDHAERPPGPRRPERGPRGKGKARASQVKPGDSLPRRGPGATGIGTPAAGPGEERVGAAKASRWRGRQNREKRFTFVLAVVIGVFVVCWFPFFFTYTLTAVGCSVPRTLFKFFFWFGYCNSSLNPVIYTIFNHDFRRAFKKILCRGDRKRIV
The class given is functional, cell-based.

For the next assay, the target named is T2, B2 bradykinin receptor (Homo sapiens, UniProt P30411).
T2 sequence (P30411 whole entry): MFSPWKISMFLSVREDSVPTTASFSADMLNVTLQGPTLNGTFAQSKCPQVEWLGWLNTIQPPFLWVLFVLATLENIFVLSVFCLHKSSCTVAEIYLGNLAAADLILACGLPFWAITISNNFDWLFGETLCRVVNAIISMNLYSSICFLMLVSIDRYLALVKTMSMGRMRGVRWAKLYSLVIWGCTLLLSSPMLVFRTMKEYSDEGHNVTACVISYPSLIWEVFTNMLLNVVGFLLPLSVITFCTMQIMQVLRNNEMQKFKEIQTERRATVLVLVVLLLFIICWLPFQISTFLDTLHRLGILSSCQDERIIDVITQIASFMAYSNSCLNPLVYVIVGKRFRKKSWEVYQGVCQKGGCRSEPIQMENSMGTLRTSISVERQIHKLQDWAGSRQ

Assay [2] has as its target T3, Cannabinoid receptor 1 (Homo sapiens, UniProt P21554). It is filed as functional, cell-based.
The target in assay [3] is T3, Cannabinoid receptor 1.
Assay [4] addresses Glutamate receptor ionotropic, NMDA 1 (Rattus norvegicus, UniProt P35439).
The target of assay [5] is T4, 5-hydroxytryptamine receptor 1A (Homo sapiens, UniProt P08908).
T4 sequence (P08908 whole entry): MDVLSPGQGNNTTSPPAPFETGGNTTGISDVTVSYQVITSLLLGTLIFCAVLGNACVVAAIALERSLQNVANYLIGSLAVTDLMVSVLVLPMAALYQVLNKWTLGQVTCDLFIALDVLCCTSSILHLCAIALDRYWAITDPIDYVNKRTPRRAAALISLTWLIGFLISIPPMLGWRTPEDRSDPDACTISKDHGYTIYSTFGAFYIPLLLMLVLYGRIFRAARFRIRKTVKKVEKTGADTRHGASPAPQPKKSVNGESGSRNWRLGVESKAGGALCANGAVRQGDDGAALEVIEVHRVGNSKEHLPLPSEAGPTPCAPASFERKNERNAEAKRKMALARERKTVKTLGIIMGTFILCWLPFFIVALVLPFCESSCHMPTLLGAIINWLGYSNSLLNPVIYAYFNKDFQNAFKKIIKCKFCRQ
The class given is functional, cell-based.

The target in another assay is Melanocortin receptor 4 (Homo sapiens, UniProt P32245).
The next assay concerns the target Motilin receptor (Homo sapiens, UniProt O43193).
Assay [6] concerns the target T5, Progesterone receptor (Homo sapiens, UniProt P06401).
T5 sequence (P06401 whole entry): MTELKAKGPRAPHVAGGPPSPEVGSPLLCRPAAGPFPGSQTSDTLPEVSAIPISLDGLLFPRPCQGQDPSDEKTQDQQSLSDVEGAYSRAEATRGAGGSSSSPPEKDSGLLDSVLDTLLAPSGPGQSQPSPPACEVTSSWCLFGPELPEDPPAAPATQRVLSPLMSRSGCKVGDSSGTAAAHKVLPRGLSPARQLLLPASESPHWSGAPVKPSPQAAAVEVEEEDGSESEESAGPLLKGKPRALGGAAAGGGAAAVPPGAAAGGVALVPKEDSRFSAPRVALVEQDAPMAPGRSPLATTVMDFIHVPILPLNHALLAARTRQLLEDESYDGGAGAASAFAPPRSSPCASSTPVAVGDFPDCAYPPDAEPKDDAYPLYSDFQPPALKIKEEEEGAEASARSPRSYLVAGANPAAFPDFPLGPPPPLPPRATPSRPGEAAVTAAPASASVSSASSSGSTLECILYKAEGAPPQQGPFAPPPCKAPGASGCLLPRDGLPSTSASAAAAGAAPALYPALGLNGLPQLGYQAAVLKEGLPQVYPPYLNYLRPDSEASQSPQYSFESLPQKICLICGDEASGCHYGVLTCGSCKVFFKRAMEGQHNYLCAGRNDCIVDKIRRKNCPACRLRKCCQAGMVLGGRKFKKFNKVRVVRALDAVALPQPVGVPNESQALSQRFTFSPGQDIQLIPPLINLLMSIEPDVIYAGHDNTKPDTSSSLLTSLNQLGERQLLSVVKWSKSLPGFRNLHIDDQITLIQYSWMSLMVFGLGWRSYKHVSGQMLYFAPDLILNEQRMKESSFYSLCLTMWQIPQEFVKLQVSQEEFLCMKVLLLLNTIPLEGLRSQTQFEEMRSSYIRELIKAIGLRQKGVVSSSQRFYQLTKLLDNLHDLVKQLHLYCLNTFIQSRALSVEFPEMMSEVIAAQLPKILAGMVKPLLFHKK
The class given is functional.

Assay [7] concerns the target T5, Progesterone receptor. It is filed as functional. This is another data set of the same source.
The next assay addresses T6, Thromboxane A2 receptor (Homo sapiens, UniProt P21731).
T6 sequence (P21731 whole entry): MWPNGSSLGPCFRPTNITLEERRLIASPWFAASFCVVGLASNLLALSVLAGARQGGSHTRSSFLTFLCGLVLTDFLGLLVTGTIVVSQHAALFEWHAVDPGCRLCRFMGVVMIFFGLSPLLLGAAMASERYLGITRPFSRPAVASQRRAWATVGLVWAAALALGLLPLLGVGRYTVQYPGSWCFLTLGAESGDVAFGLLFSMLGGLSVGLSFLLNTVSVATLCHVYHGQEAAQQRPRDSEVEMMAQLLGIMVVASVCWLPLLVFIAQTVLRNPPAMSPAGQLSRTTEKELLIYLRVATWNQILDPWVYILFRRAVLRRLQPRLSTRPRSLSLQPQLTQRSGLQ

In assay [8] the target is Sodium-dependent dopamine transporter (Homo sapiens, UniProt Q01959).
Also: assay procedure not described here.

T3 sequence (P21554 whole entry): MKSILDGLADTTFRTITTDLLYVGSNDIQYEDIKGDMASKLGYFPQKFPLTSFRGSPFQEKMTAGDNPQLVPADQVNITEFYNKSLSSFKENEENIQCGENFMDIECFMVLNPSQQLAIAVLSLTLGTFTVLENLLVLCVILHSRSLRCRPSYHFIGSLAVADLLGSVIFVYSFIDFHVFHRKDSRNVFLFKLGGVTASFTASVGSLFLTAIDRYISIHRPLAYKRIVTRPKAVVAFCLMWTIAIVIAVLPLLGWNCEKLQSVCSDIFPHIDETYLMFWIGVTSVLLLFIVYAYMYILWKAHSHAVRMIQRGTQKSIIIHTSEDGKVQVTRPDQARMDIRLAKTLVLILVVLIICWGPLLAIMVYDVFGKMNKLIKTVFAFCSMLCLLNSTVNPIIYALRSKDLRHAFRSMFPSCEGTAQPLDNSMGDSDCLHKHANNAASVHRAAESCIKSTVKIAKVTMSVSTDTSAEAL
Melanocortin receptor 4, sequence (P32245 whole entry): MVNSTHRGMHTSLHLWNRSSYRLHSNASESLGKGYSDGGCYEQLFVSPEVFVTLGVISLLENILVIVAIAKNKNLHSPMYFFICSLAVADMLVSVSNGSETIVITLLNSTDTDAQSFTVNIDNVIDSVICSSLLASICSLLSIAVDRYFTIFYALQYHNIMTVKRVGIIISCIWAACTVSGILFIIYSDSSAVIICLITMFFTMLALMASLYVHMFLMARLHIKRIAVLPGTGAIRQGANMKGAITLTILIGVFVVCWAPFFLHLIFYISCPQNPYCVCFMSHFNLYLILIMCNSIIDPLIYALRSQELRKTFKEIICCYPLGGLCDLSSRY
Motilin receptor, sequence (O43193 whole entry): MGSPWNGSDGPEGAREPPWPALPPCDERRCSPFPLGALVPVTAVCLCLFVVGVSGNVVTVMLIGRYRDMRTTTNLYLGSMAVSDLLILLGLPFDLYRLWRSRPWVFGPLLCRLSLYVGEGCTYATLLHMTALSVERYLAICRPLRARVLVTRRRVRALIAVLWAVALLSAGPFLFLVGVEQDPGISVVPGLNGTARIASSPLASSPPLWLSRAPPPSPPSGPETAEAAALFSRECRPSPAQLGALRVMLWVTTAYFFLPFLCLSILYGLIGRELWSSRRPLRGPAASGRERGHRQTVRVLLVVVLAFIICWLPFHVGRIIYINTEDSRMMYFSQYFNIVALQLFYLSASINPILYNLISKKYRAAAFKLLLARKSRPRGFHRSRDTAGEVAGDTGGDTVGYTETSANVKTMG
Sodium-dependent dopamine transporter, sequence (Q01959 whole entry): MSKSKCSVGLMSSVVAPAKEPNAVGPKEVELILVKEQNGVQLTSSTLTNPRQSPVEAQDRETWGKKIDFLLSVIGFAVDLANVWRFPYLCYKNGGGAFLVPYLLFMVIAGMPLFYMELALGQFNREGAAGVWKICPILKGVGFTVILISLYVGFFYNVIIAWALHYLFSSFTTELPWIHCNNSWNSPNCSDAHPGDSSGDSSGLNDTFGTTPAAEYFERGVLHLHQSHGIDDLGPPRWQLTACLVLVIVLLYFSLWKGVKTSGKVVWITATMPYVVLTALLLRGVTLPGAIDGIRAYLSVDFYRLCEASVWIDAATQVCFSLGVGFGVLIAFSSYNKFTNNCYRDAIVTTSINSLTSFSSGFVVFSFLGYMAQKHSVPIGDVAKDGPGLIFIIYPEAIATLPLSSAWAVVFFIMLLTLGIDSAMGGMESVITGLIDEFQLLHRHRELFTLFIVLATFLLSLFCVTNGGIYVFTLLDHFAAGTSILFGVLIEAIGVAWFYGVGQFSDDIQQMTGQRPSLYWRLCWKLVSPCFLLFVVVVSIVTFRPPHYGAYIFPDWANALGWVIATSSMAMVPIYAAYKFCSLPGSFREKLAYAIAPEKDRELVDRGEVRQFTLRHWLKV

Consider `COc1ccccc1Oc1c(NS(=O)(=O)c2ccc(C(C)(C)C)cc2)nc(-c2ncccn2)nc1OCCO` [BOSENTAN], for which the concentration at half-maximal activity (AC50) in assay [1] was > 10 µM; on B2 bradykinin receptor it was > 30 µM; at Cannabinoid receptor 1 [2] it was > 30 µM; at Cannabinoid receptor 1 [3], > 10 µM; in [4], > 10 µM; in assay [5], > 10 µM. Also, the AC50 on Melanocortin receptor 4 is > 30 µM; on Motilin receptor, > 10 µM; at Progesterone receptor [6] it was > 30 µM; on Progesterone receptor [7], > 30 µM; on Thromboxane A2 receptor, > 30 µM; in [8] it was > 30 µM.

`CC(C(=O)O)c1ccc2c(c1)[nH]c1ccc(Cl)cc12` (configuration not stated) [CARPROFEN]: the half-maximal activity concentration (AC50) in assay [1] is > 10 µM; on B2 bradykinin receptor, > 30 µM; at Cannabinoid receptor 1 [3] it was > 10 µM; in [4], > 10 µM; in assay [5] it was > 10 µM; at Melanocortin receptor 4 it was > 10 µM. In addition, the AC50 (on Motilin receptor; on Progesterone receptor [6]; on Progesterone receptor [7]; at Thromboxane A2 receptor; in assay [8]) was > 30 µM each time.

Regarding `C[C@@H](Oc1cc(-c2cnn(C3CCNCC3)c2)cnc1N)c1c(Cl)ccc(F)c1Cl` [CRIZOTINIB], the AC50 in [1] was 15 µM; on Cannabinoid receptor 1 [2] it was > 30 µM; at Cannabinoid receptor 1 [3] it was > 10 µM; in assay [5], > 10 µM; at Melanocortin receptor 4 it was 19.8 µM; on Motilin receptor, 16 µM. Also, the concentration at half-maximal activity (AC50) on Progesterone receptor [6] is > 30 µM; on Progesterone receptor [7], > 30 µM; on Thromboxane A2 receptor it was > 30 µM; in [8] it was 7.8 µM.

On to `O=C1CN(/N=C/c2ccc(-c3ccc([N+](=O)[O-])cc3)o2)C(O)=N1` [DANTROLENE], for which the half-maximal activity concentration (AC50) (in [1]; on B2 bradykinin receptor; on Cannabinoid receptor 1 [3]; in assay [4]; in [5]; on Melanocortin receptor 4) was > 10 µM each time. For the same compound, the concentration at half-maximal activity (AC50) (at Motilin receptor; on Progesterone receptor [6]; at Progesterone receptor [7]; at Thromboxane A2 receptor; in [8]) was > 10 µM each time.

On to `CN1C(C(=O)Nc2ccccn2)=C(O)c2ccccc2S1(=O)=O` [PIROXICAM], for which the half-maximal activity concentration (AC50) (in [1]; at B2 bradykinin receptor; on Cannabinoid receptor 1 [3]; in assay [4]; in [5]; at Melanocortin receptor 4) was > 10 µM throughout. Also, the AC50 (on Motilin receptor; at Progesterone receptor [6]; on Progesterone receptor [7]; on Thromboxane A2 receptor; in assay [8]) was > 10 µM each time.

Regarding `CO[C@H]1/C=C/O[C@@]2(C)Oc3c(C)c(O)c4c(O)c(c(/C=N/N5CCN(C)CC5)c(O)c4c3C2=O)NC(=O)/C(C)=C\C=C\[C@H](C)[C@H](O)[C@@H](C)[C@@H](O)[C@@H](C)[C@H](OC(C)=O)[C@@H]1C` [RIFAMPIN], the AC50 in [1] was > 30 µM; on B2 bradykinin receptor, 18.6 µM; at Cannabinoid receptor 1 [2], > 30 µM; on Cannabinoid receptor 1 [3], > 30 µM; in assay [4] it was > 30 µM; in assay [5], > 10 µM. Also, the AC50 on Melanocortin receptor 4 was > 30 µM; at Motilin receptor it was > 30 µM; at Progesterone receptor [6], > 30 µM; on Thromboxane A2 receptor it was 17.4 µM; in [8] it was 20 µM.

On to `CC(N)C12CC3CC(CC(C3)C1)C2` (configuration not stated) [RIMANTADINE], for which the half-maximal activity concentration (AC50) (in assay [1]; on B2 bradykinin receptor; at Cannabinoid receptor 1 [3]; in assay [4]; in assay [5]; on Melanocortin receptor 4) was > 10 µM each time. In addition, the half-maximal activity concentration (AC50) (on Motilin receptor; on Progesterone receptor [6]; on Progesterone receptor [7]; on Thromboxane A2 receptor; in assay [8]) was > 10 µM in each case.

A word on the AC50: it is the concentration giving half of the maximal activity seen. The low end stands for greater potency, the high end for weaker potency.
